Data taken from the supplement of paper PMC8960247.
Counter-ions that a name gives are not always drawn. ± gives the standard error.

Assays:
[1] = tested on: 621-102 (TSC2-deficient); test: relative viability vs DMSO (fraction); higher = less cytotoxic; conditions: serum: 0.1% FBS, 72 h
[2] = tested on: UMB1949 (TSC2-deficient); test: as above; conditions: serum: 0.1% FBS, 72 h;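 note: renal angiomyolipoma cell lines screened in 384-well plates, viability normalized per plate to DMSO-treated cells, each plate carrying 50 nM rapamycin and 1 µM staurosporine controls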
[3] = tested on: 621-102 (TSC2-deficient); test: relative viability vs DMSO; higher = less cytotoxic; conditions: serum: 10% FBS, 72 h
[4] = tested on: 621-103 (TSC2-rescued); test: as above; conditions: serum: 10% FBS, 72 h

Row | SMILES | relative viability ([1]; 0.0128 nM) | relative viability ([1]; 0.064 nM) | relative viability ([1]; 0.32 nM) | relative viability ([1]; 1.6 nM) | relative viability ([1]; 8 nM) | relative viability ([1]; 40 nM) | relative viability ([1]; 200 nM) | relative viability ([1]; 1000 nM) | relative viability ([1]; 5000 nM) | relative viability ([2]; 0.0128 nM) | relative viability ([2]; 0.064 nM) | relative viability ([2]; 0.32 nM) | relative viability ([2]; 1.6 nM) | relative viability ([2]; 8 nM) | relative viability ([2]; 40 nM) | relative viability ([2]; 200 nM) | relative viability ([2]; 1000 nM) | relative viability ([2]; 5000 nM) | relative viability ([3]; 0.0001 µM) [%] | relative viability ([3]; 0.001 µM) [%] | relative viability ([3]; 0.01 µM) [%] | relative viability ([3]; 0.1 µM) [%] | relative viability ([3]; 1 µM) [%] | relative viability ([3]; 10 µM) [%] | relative viability ([4]; 0.0001 µM) [%] | relative viability ([4]; 0.001 µM) [%] | relative viability ([4]; 0.01 µM) [%] | relative viability ([4]; 0.1 µM) [%] | relative viability ([4]; 1 µM) [%] | relative viability ([4]; 10 µM) [%]
1 | Cc1[nH]c2ccccc2c1CCNCc1ccc(/C=C/C(=O)NO)cc1 [Panobinostat (LBH589)] | 1.34 | 0.935 | 1.1 | 0.909 | 0.458 | 0.228 | 0.0101 | 0.00297 | 0.00203 | 1.08 | 1.02 | 0.955 | 0.779 | 0.0132 | 0.00793 | 0.0069 | 0.00422 | 0.00261 | – | – | – | – | – | – | – | – | – | – | – | –
2 | c1cncc(CN2CCC(n3ncc4c(N5CCOCC5)nc(-c5ccc6[nH]ccc6c5)nc43)CC2)c1 [WAY-600] | 1.07 | 1.25 | 1.04 | 1.18 | 1.21 | 1.19 | 0.798 | 0.345 | 0.00768 | 0.882 | 0.972 | 1.04 | 0.972 | 1.02 | 0.933 | 0.892 | 0.354 | 0.00636 | 89.809 ± 0.075 | 104 ± 2.2 | 99.7 ± 2.1 | 100 ± 1.8 | 82.5 ± 1 | 2.21 ± 0.054 | 99.7 ± 2.6 | 97.8 ± 4.8 | 103 ± 3.9 | 98.1 ± 1.8 | 54.5 ± 2.2 | 7.78 ± 0.25
3 | CC(C)C[C@H](NC(=O)[C@H](Cc1ccccc1)NC(=O)c1cnccn1)B(O)O [Bortezomib] | 1.07 | 1.03 | 0.903 | 0.16 | 0.0107 | 0.00306 | 0.00178 | 0.000877 | 0.000659 | 1.02 | 0.99 | 1.02 | 0.62 | 0.0154 | 0.00739 | 0.0026 | 0.000806 | 0.000906 | 110 ± 1.3 | 102 ± 2.8 | 5.8 ± 0.15 | 3.06 ± 0.034 | 2.21 ± 0.16 | 1.87 ± 0.13 | 97.4 ± 1.6 | 90 ± 4.2 | 2.332 ± 0.012 | 1.43 ± 0.049 | 1.14 ± 0.0052 | 1.03 ± 0.066
4 | CO[C@@H](C(=O)N1Cc2[nH]nc(NC(=O)c3ccc(N4CCN(C)CC4)cc3)c2C1)c1ccccc1 | 0.925 | 0.972 | 0.92 | 0.989 | 0.816 | 0.325 | 0.0618 | 0.0757 | 0.00444 | 0.936 | 0.879 | 0.868 | 1.02 | 0.261 | 0.037 | 0.0271 | 0.00276 | 0.000648 | 105 ± 3.9 | 101 ± 2.8 | 98 ± 8.5 | 91.8 ± 2.3 | 64.1 ± 0.79 | 31.6 ± 0.91 | 85.7 ± 2.3 | 90.8 ± 0.93 | 92.6 ± 5 | 89.5 ± 2.8 | 62.3 ± 1.8 | 11.5 ± 0.39
5 | CN1CC[C@H](c2c(O)cc(O)c3c(=O)cc(-c4ccccc4Cl)oc23)[C@H](O)C1 [Flavopiridol(Alvocidib)] | 1.14 | 1.2 | 1.24 | 1.15 | 0.972 | 0.212 | 0.00428 | 0.00239 | 0.00377 | 1.12 | 1.16 | 1.04 | 1.21 | 1.08 | 0.923 | 0.00682 | 0.00291 | 0.00348 | – | – | – | – | – | – | – | – | – | – | – | –
6 | Cc1cc(Nc2cc(N3CCN(C)CC3)nc(Sc3ccc(NC(=O)C4CC4)cc3)n2)n[nH]1 [VX-680 (MK-0457)] | 1.08 | 1 | 0.776 | 0.176 | 0.0382 | 0.0452 | 0.0422 | 0.0108 | 0.00299 | 0.947 | 0.818 | 0.872 | 0.0803 | 0.0315 | 0.0297 | 0.0316 | 0.0244 | 0.0016 | 101 ± 4.7 | 90.4 ± 2.4 | 98.8 ± 1.7 | 81.4 ± 0.96 | 76 ± 2.1 | 47.8 ± 0.98 | 99.1 ± 1.1 | 103 ± 1.9 | 100 ± 1.9 | 94.8 ± 6.2 | 78.2 ± 2 | 20.4 ± 0.69
7 | CC[C@@]1(O)C(=O)OCc2c1cc1n(c2=O)Cc2cc3c(CN(C)C)c(O)ccc3nc2-1 [Topotecan Hydrochloride] | 1.03 | 0.984 | 1.06 | 0.956 | 0.888 | 0.268 | 0.0393 | 0.00545 | 0.000822 | 1.08 | 1.08 | 1.03 | 0.883 | 0.692 | 0.00466 | 0.00116 | 0.000564 | 0.0011 | 105 ± 5.7 | 110 ± 4.5 | 103 ± 3.6 | 80.067 ± 0.0095 | 30.3 ± 2.4 | 12.7 ± 0.7 | 106 ± 1.4 | 110.5 ± 0.33 | 102 ± 1.7 | 80.31 ± 0.015 | 26.9 ± 0.65 | 7.57 ± 0.098
8 | O=c1cc(N2CCOCC2)oc2c(-c3cccc4c3sc3ccccc34)cccc12 [NU7441] | 1.29 | 0.918 | 0.935 | 0.718 | 0.623 | 0.724 | 0.674 | 0.227 | 0.00895 | 1.06 | 0.893 | 1.08 | 0.961 | 0.89 | 0.85 | 0.236 | 0.00964 | 0.00523 | 61.9 ± 2.2 | 57.3 ± 5.1 | 78.8 ± 9.5 | 78.5 ± 3 | 88.7 ± 5.2 | 41.2 ± 0.43 | 105 ± 2.5 | 109 ± 1.9 | 111 ± 1.2 | 102.6 ± 0.65 | 101 ± 2.8 | 56.7 ± 1.8
9 | CC(C)C[C@@H](C=O)NC(=O)[C@H](CC(C)C)NC(=O)[C@H](CC(C)C)NC(=O)OCc1ccccc1 [MG132] | 0.611 | 0.586 | 0.383 | 0.272 | 0.148 | 0.00944 | 0.00319 | 0.00253 | 0.0116 | 0.846 | 0.0534 | 0.0466 | 0.00704 | 0.00406 | 0.00242 | 0.00153 | 0.000971 | 0.00561 | – | – | – | – | – | – | – | – | – | – | – | –
